A short description of data set [1]: Octanol-water partition at pH 7.4. Type of data set: physicochemical.
The test system of data set [2] is Mus musculus. The experiment in a line: Compound was tested in vivo for mouse brain uptake after 2 min; Mouse brain uptake per g. Type of data set: functional, organism-based.
Data set [3] concerns Mus musculus. The experiment in a line: Compound was tested in vivo for mouse brain uptake after 30 min; Mouse brain uptake per g. In kind it is functional, organism-based.
Data set [4] in a line: Ratio of 2-30 min mouse brain uptakes per g was determined. In kind it is functional.
Data set [5] can be described thus: In vitro binding using synthetic aggregated Abeta(1-40) fibrils.

Broadly, the logD is the decadic logarithm of the distribution of all forms, ionised or not, between an organic phase and buffer at a given pH. The low end stands for a more hydrophilic compound, the high end for a more lipophilic compound. In data set [1], `Cc1ccc2c(c1)sc(-c1ccc(N(C)C)cc1)[n+]2C` yielded a logD of 0.57.

In data set [1], `CNc1ccc(-c2nc3ccccc3s2)cc1` registered a logD of 2.7. Also, the ID/g is 12.9% in the data set on Mus musculus [2] and 1.7% with Mus musculus [3].

What is called Ki is a measure of affinity in units of concentration, obtained from inhibition or displacement. A higher Ki goes with weaker binding. `CNc1ccc(-c2nc3ccc(C)cc3s2)cc1`: the Ratio in data set [4] is recorded as 2.7. This compound also yielded a Ki in data set [5] of 10 nM. In data set [1], this compound came in with a logD of 3.4. The ID/g in the data set on Mus musculus [2] was determined as 7.6%; in the data set with Mus musculus [3] it was 2.8%.
